Assays:
[1] = tested on: IL-17A-induced G-CSF production in human normal keratinocyte (NHK); assay: NHK assay: IL-17A-induced G-CSF production in normal human keratinocytes; format: cell-based; conditions: Homo sapiens, Keratinocyte, 24 h, IL-17A 5 ng/mL, average if tested more than once
Summary of the method: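 Stimulus rhIL-17A 5 ng/mL final, premixed 1 h rt with compound; adult NHK, 5% FBS, 0.2% DMSO. Viability by CellTiter-Glo vs DMSO.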

IL-17A : IL-17RA binding = target: T1, IL-17A : IL-17RA binding (Homo sapiens, UniProt Q16552, K93Q); assay: IL-17A(FLAG-tagged):IL-17RA(His-tagged) binding disruption Eu-HTRF assay, Protocol 1; conditions: FLAG-IL-17A 2.5 nM at 2x final concentration; average if tested more than once
T1 construct: Name: IL-17A-Flag
Summary of the method: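 IC50 came from a one-site competition fit of the acceptor/donor (665/620 nm) HTRF ratio. His-tagged IL-17RA, Eu-anti-FLAG and D2-anti-His were added after a 1 h rt compound preincubation with FLAG-tagged IL-17A dimer in PBS/0.01% Triton X-100, followed by 2 h at rt before reading.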

T1 sequence (Q16552 with tags, fused parts or gaps K93Q): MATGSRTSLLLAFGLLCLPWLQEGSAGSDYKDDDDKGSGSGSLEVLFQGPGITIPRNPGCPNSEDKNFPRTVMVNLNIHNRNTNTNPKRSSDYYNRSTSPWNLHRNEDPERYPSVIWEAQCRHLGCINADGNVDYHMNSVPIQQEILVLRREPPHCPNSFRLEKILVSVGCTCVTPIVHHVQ

Compound	IC50 [1]	IC50 (IL-17A : IL-17RA binding)
CC(C)CCn1ncc(C(=O)N[C@H](c2nc3cc([C@@H](C)NC(=O)CCC(F)(F)F)ccc3[nH]2)C2CCC(F)(F)CC2)c1C(C)C [Example 11, N—[(S)-(4,4-Difluorocyclohexyl)-[6-[(1R)-1-(4,4,4-trifluorobutanoylamino)ethyl]-1H-benzimidazol-2-yl]methyl]-1-isopentyl-5-isopropyl-pyrazole-4-carboxamide]	> 100 nM	> 100 nM
C[C@@H](NC(=O)CCC(F)(F)F)c1ccc2[nH]c([C@@H](NC(=O)c3cnn(CCC4CC4)n3)C3CCC(F)(F)CC3)nc2c1 [Example 12, 2-(2-Cyclopropylethyl)-N—[(S)-(4,4-difluorocyclohexyl)-[6-[(1R)-1-(4,4,4-trifluorobutanoylamino)ethyl]-1H-benzimidazol-2-yl]methyl]triazole-4-carboxamide]	> 100 nM	50 to 100 nM
C[C@@H](NC(=O)CCC(F)(F)F)c1ccc2[nH]c([C@@H](NC(=O)c3cnnn3CCC3CC3)C3CCC(F)(F)CC3)nc2c1 [Example 13, 3-(2-Cyclopropylethyl)-N—[(S)-(4,4-difluorocyclohexyl)-[6-[(1R)-1-(4,4,4-trifluorobutanoylamino)ethyl]-1H-benzimidazol-2-yl]methyl]triazole-4-carboxamide]	> 100 nM	> 100 nM
COCCn1ncc(C(=O)N[C@H](c2nc3cc([C@@H](C)NC(=O)CCC(F)(F)F)ccc3[nH]2)C2CCC(F)(F)CC2)n1 [Example 14, N—[(S)-(4,4-Difluorocyclohexyl)-[6-[(1R)-1-(4,4,4-trifluorobutanoylamino)ethyl]-1H-benzimidazol-2-yl]methyl]-2-(2-methoxyethyl)triazole-4-carboxamide]	> 100 nM	> 100 nM
COCCn1nncc1C(=O)N[C@H](c1nc2cc([C@@H](C)NC(=O)CCC(F)(F)F)ccc2[nH]1)C1CCC(F)(F)CC1 [Example 15, N—[(S)-(4,4-Difluorocyclohexyl)-[6-[(1R)-1-(4,4,4-trifluorobutanoylamino)ethyl]-1H-benzimidazol-2-yl]methyl]-3-(2-methoxyethyl)triazole-4-carboxamide]	> 100 nM	> 100 nM
COCCn1cc(C(=O)N[C@H](c2nc3cc([C@@H](C)NC(=O)CCC(F)(F)F)ccc3[nH]2)C2CCC(F)(F)CC2)nn1 [Example 16, N—[(S)-(4,4-Difluorocyclohexyl)-[6-[(1R)-1-(4,4,4-trifluorobutanoylamino)ethyl]-1H-benzimidazol-2-yl]methyl]-1-(2-methoxyethyl)triazole-4-carboxamide]	> 100 nM	> 100 nM
Cc1c(C(=O)N[C@H](c2nc3cc([C@@H](C)NC(=O)CCC(F)(F)F)ccc3[nH]2)C2CCC(F)(F)CC2)cnn1CCC#N [Example 17, 1-(2-Cyanoethyl)-N—[(S)-(4,4-difluorocyclohexyl)-[6-[(1R)-1-(4,4,4-trifluorobutanoylamino)ethyl]-1H-benzimidazol-2-yl]methyl]-5-methyl-pyrazole-4-carboxamide]	> 100 nM	> 100 nM
Cc1c(C(=O)N[C@H](c2nc3cc([C@@H](C)NC(=O)CCC(F)(F)F)ccc3[nH]2)C2CCC(F)(F)CC2)cnn1CC(F)(F)F [Example 18, N—[(S)-(4,4-Difluorocyclohexyl)-[6-[(1R)-1-(4,4,4-trifluorobutanoylamino)ethyl]-1H-benzimidazol-2-yl]methyl]-5-methyl-1-(2,2,2-trifluoroethyl)pyrazole-4-carboxamide]	> 100 nM	> 100 nM
C[C@@H](NC(=O)CCC(F)(F)F)c1ccc2[nH]c([C@@H](NC(=O)c3cnn(CCCC(F)(F)F)n3)C3CCC(F)(F)CC3)nc2c1 [Example 19, N—[(S)-(4,4-Difluorocyclohexyl)-[6-[(1R)-1-(4,4,4-trifluorobutanoylamino)ethyl]-1H-benzimidazol-2-yl]methyl]-2-(4,4,4-trifluorobutyl)triazole-4-carboxamide]	50 to 100 nM	> 100 nM
C[C@@H](NC(=O)CCC(F)(F)F)c1ccc2[nH]c([C@@H](NC(=O)c3cnnn3CCCC(F)(F)F)C3CCC(F)(F)CC3)nc2c1 [Example 20, N—[(S)-(4,4-Difluorocyclohexyl)-[6-[(1R)-1-(4,4,4-trifluorobutanoylamino)ethyl]-1H-benzimidazol-2-yl]methyl]-3-(4,4,4-trifluorobutyl)triazole-4-carboxamide]	50 to 100 nM	> 100 nM
C[C@@H](NC(=O)CCC(F)(F)F)c1ccc2[nH]c([C@@H](NC(=O)c3cn(CCCC(F)(F)F)nn3)C3CCC(F)(F)CC3)nc2c1 [Example 21, N—[(S)-(4,4-Difluorocyclohexyl)-[6-[(1R)-1-(4,4,4-trifluorobutanoylamino)ethyl]-1H-benzimidazol-2-yl]methyl]-1-(4,4,4-trifluorobutyl)triazole-4-carboxamide]	> 100 nM	> 100 nM
C[C@@H](NC(=O)CCC(F)(F)F)c1ccc2[nH]c([C@@H](NC(=O)c3cnn(CC(F)(F)F)n3)C3CCC(F)(F)CC3)nc2c1 [Example 22, N—[(S)-(4,4-Difluorocyclohexyl)-[6-[(1R)-1-(4,4,4-trifluorobutanoylamino)ethyl]-1H-benzimidazol-2-yl]methyl]-2-(2,2,2-trifluoroethyl)triazole-4-carboxamide]	> 100 nM	> 100 nM
C[C@@H](NC(=O)CCC(F)(F)F)c1ccc2[nH]c([C@@H](NC(=O)c3cnnn3CC(F)(F)F)C3CCC(F)(F)CC3)nc2c1 [Example 23, N—[(S)-(4,4-Difluorocyclohexyl)-[6-[(1R)-1-(4,4,4-trifluorobutanoylamino)ethyl]-1H-benzimidazol-2-yl]methyl]-3-(2,2,2-trifluoroethyl)triazole-4-carboxamide]	> 100 nM	> 100 nM
C[C@@H](NC(=O)CCC(F)(F)F)c1ccc2[nH]c([C@@H](NC(=O)c3cn(CC(F)(F)F)nn3)C3CCC(F)(F)CC3)nc2c1 [Example 24, N—[(S)-(4,4-Difluorocyclohexyl)-[6-[(1R)-1-(4,4,4-trifluorobutanoylamino)ethyl]-1H-benzimidazol-2-yl]methyl]-1-(2,2,2-trifluoroethyl)triazole-4-carboxamide]	> 100 nM	> 100 nM
Cc1n[nH]cc1C(=O)N[C@H](c1nc2cc([C@@H](C)NC(=O)CCC(F)(F)F)ccc2[nH]1)C1CCC(F)(F)CC1 [Example 25, N—[(S)-(4,4-Difluorocyclohexyl)-[6-[(1R)-1-(4,4,4-trifluorobutanoylamino)ethyl]-1H-benzimidazol-2-yl]methyl]-3-methyl-1H-pyrazole-4-carboxamide]	> 100 nM	> 100 nM
C[C@@H](NC(=O)CCC(F)(F)F)c1ccc2[nH]c([C@@H](NC(=O)c3cnn(CCOC(F)(F)F)c3)C3CCC(F)(F)CC3)nc2c1 [Example 26, N—[(S)-(4,4-Difluorocyclohexyl)-[6-[(1R)-1-(4,4,4-trifluorobutanoylamino)ethyl]-1H-benzimidazol-2-yl]methyl]-1-[2-(trifluoromethoxy)ethyl]pyrazole-4-carboxamide]	> 100 nM	> 100 nM
C[C@@H](NC(=O)CCC(F)(F)F)c1ccc2[nH]c([C@@H](NC(=O)c3cnn(CCOC(F)F)c3)C3CCC(F)(F)CC3)nc2c1 [Example 27, N—[(S)-(4,4-Difluorocyclohexyl)-[6-[(1R)-1-(4,4,4-trifluorobutanoylamino)ethyl]-1H-benzimidazol-2-yl]methyl]-1-[2-(difluoromethoxy)ethyl]pyrazole-4-carboxamide]	> 100 nM	> 100 nM
Cc1c(C(=O)N[C@H](c2nc3ccc([C@@H](C)NC(=O)CCC(F)(F)F)cc3[nH]2)C2CCC(F)(F)CC2)cnn1CC(F)F [Example 28, N—[(S)-(4,4-Difluorocyclohexyl)-[6-[(1R)-1-(4,4,4-trifluorobutanoylamino)ethyl]-1H-benzimidazol-2-yl]methyl]-1-(2,2-difluoroethyl)-5-methyl-pyrazole-4-carboxamide]	> 100 nM	> 100 nM
C[C@@H](NC(=O)CCC(F)(F)F)c1ccc2[nH]c([C@@H](NC(=O)c3ncn(CC4CC4)n3)C3CCC(F)(F)CC3)nc2c1 [Example 29, 1-(Cyclopropylmethyl)-N—[(S)-(4,4-difluorocyclohexyl)-[6-[(1R)-1-(4,4,4-trifluorobutanoylamino)ethyl]-1H-benzimidazol-2-yl]methyl]-1,2,4-triazole-3-carboxamide]	> 100 nM	> 100 nM
C[C@@H](NC(=O)CCC(F)(F)F)c1ccc2[nH]c([C@@H](NC(=O)c3ncnn3CC3CC3)C3CCC(F)(F)CC3)nc2c1 [Example 30, 2-(Cyclopropylmethyl)-N—[(S)-(4,4-difluorocyclohexyl)-[6-[(1R)-1-(4,4,4-trifluorobutanoylamino)ethyl]-1H-benzimidazol-2-yl]methyl]-1,2,4-triazole-3-carboxamide]	> 100 nM	50 to 100 nM
C[C@@H](NC(=O)CCC(F)(F)F)c1ccc2[nH]c([C@@H](NC(=O)c3ncnn3C)C3CCC(F)(F)CC3)nc2c1 [Example 31, N—[(S)-(4,4-Difluorocyclohexyl)-[6-[(1R)-1-(4,4,4-trifluorobutanoylamino)ethyl]-1H-benzimidazol-2-yl]methyl]-2-methyl-1,2,4-triazole-3-carboxamide]	> 100 nM	> 100 nM
C[C@@H](NC(=O)CCC(F)(F)F)c1ccc2[nH]c([C@@H](NC(=O)c3ncn(C)n3)C3CCC(F)(F)CC3)nc2c1 [Example 32, N—[(S)-(4,4-Difluorocyclohexyl)-[6-[(1R)-1-(4,4,4-trifluorobutanoylamino)ethyl]-1H-benzimidazol-2-yl]methyl]-1-methyl-1,2,4-triazole-3-carboxamide]	> 100 nM	> 100 nM

From patent US20240376085A1 (Janssen Pharmaceutica NV, priority 2021, published 2024)
